Read-outs that look alike come from different tables or passages of the source.
Biological target: GCN2 (Homo sapiens, UniProt Q9P2K8)
Assay: GCN2 enzymatic endpoint assay: phosphorylation of GFP-eIF2α measured by TR-FRET (Lanthascreen)
Format: biochemical
Method in brief: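 Read-out is the TR-FRET ratio of acceptor signal at 520 nm to terbium donor at 495 nm, rising with antibody binding to phosphorylated GFP-eIF2α. Endpoint format: 2 μM ATP, 80 nM substrate, 90 minutes at room temperature, EDTA stop.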

[1] = tested as described in Example 77, compound and/or hydrochloride, dihydrochloride or trifluoroacetic acid salt, read-out: IC 50 Activity
[2] = GCN2 biochemical IC50, 4 nM GCN2, 2 μM ATP, 80 nM GFP-eIF2α, 90 min RT, read-out: GCN2 activity

GCN2, sequence (Q9P2K8 whole entry): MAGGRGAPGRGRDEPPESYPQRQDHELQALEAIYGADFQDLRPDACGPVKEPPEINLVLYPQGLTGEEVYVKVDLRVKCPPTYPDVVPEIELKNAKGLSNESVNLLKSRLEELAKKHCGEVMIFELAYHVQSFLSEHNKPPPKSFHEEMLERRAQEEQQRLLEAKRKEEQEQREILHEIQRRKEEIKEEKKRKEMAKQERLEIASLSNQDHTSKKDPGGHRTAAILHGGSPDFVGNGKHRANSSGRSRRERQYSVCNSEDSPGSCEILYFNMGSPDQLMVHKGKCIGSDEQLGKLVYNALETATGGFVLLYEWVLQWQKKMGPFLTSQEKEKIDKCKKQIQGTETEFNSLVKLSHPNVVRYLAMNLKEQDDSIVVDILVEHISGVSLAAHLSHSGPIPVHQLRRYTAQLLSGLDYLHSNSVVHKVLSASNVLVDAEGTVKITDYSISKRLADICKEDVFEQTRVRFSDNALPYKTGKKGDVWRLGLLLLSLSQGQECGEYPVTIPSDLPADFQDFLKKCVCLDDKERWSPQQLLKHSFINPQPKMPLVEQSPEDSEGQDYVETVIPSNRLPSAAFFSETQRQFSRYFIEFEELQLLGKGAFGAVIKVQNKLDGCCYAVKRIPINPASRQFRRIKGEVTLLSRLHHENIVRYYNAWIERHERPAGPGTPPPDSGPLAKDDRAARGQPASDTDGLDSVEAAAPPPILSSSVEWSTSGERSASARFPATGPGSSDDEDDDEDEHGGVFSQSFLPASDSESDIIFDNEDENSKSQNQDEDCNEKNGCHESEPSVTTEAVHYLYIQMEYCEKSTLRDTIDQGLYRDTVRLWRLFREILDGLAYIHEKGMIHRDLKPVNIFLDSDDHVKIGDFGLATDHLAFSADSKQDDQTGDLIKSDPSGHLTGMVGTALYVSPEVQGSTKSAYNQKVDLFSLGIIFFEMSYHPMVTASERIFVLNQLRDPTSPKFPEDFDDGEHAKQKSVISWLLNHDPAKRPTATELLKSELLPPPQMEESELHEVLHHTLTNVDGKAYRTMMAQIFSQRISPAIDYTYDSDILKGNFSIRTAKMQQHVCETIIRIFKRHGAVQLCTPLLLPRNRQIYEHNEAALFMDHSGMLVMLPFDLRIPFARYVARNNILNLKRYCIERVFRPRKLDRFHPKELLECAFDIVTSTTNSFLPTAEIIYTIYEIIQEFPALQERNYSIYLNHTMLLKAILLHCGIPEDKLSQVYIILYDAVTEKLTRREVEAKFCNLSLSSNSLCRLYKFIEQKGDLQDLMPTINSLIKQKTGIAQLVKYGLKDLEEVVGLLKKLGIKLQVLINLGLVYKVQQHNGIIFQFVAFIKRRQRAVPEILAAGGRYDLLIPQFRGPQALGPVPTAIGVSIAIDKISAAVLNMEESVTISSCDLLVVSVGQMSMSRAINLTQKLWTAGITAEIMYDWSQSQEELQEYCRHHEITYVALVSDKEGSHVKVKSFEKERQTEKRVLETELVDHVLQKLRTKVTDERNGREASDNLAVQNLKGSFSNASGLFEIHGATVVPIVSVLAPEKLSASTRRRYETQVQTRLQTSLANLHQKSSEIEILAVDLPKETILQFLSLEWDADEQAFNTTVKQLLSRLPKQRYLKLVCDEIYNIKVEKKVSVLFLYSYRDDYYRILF

| SMILES | IC50 [1] [nM] | IC50 [2] [nM] |
| --- | --- | --- |
| N#Cc1cc(-n2nc(Br)c3cnc(N[C@@H]4CC[C@@H](C(=O)N5CCCC5)C4)nc32)cc2cccnc12 [6-(3-bromo-6-(((1R,3R)-3-(pyrrolidine-1-carbonyl)cyclopentyl)amino)-1H-pyrazolo [3,4-d]pyrimidin-1-yl)quinoline-8-carbonitrile] | 25 to 200 | – |
| CNC(=O)[C@]1(C)CC[C@@H](Nc2ncc3c(Br)nn(-c4ccc(-c5nnc(C)s5)c(CCCN)c4)c3n2)C1 [(1R,3R)-3-[[1-[3-(3-aminopropyl)-4-(5-methyl-1,3,4-thiadiazol-2-yl)phenyl]-3-bromopyrazolo[3,4-d]pyrimidin-6-yl]amino]-N,1-dimethyl-cyclopentanecarboxamide] | 25 to 200 | – |
| CNC(=O)[C@]1(C)CC[C@@H](Nc2ncc3c(Br)nn(-c4cc(C#N)cc(CNS(C)(=O)=O)c4)c3n2)C1 | 25 to 200 | – |
| COC(=O)N1CC[C@@H](Nc2ncc3c(Br)nn(-c4ccc(-c5nnc(C)s5)cc4)c3n2)C1 | 25 to 200 | – |
| COCCNC(=O)[C@@H]1CC[C@@H](Nc2ncc3c(Br)nn(-c4cncc(OC)c4)c3n2)C1 [(1R,3R)-3-((3-bromo-1-(5-methoxypyridin-3-yl)-1H-pyrazolo[3,4-d]pyrimidin-6-yl)amino)-N-(2-methoxyethyl)cyclopentane-1-carboxamide] | 500 to 1000 | – |
| CNC(=O)[C@@]1(C)CC[C@@H](Nc2ncc3c(I)nn(-c4ccc(-c5nnc(C)o5)cc4)c3n2)C1 [(1S,3R)-3-[[3-iodo-1-[4-(5-methyl-1,3,4-oxadiazol-2-yl)phenyl]pyrazolo[3,4-d]pyrimidin-6-yl]amino]-N,1-dimethyl-cyclopentanecarboxamide] | 25 to 200 | – |
| CNC(=O)[C@]1(C)CC[C@@H](Nc2ncc3c(Br)nn(-c4ccc(-c5cncs5)cc4)c3n2)C1 [(1R,3R)-3-[[3-bromo-1-(4-thiazol-5-ylphenyl)pyrazolo[3,4-d]pyrimidin-6-yl]amino]-N,1-dimethyl-cyclopentane-carboxamide] | 25 to 200 | – |
| CNC(=O)[C@]1(C)CC[C@@H](Nc2ncc3c(Br)nn(-c4ccc(-c5nnc(C)o5)cc4)c3n2)C1 [(1R,3R)-3-[[3-bromo-1-[4-(5-methyl-1,3,4-oxadiazol-2-yl)phenyl]pyrazolo[3,4-d]pyrimidin-6-yl]amino]-N,1-dimethyl-cyclo-pentanecarboxamide] | < 25 | – |
| CNC(=O)[C@]1([C@@H](C)C#N)CC[C@@H](Nc2ncc3c(Br)nn(-c4ccc(-c5nnc(C)s5)cc4)c3n2)C1 [(1R,3R)-3-[[3-bromo-1-[4-(5-methyl-1,3,4-thiadiazol-2-yl)phenyl]pyrazolo [3,4-d]pyrimidin-6-yl]amino]-1-[(1R)-1-cyanoethyl]-N-methyl-cyclopentane-carboxamide] | 25 to 200 | – |
| Cc1nnc(-c2ccc(-n3nc(Br)c4cnc(N[C@@H]5CC[C@](C)(O)C5)nc43)cc2CCC#N)s1 [3-[5-[3-bromo-6-[[(1R,3S)-3-hydroxy-3-methyl-cyclopentyl]amino]pyrazolo [3,4-d]pyrimidin-1-yl]-2-(5-methyl-1,3,4-thiadiazol-2-yl)phenyl]propanenitrile] | 25 to 200 | – |
| CNC(=O)[C@]1(C)CC[C@@H](Nc2ncc3c(Br)nn(-c4cc(NC(=O)CN)c5ncccc5c4)c3n2)C1 [(1R,3R)-3-[[1-[8-[(2-aminoacetyl)amino]-6-quinolyl]-3-bromo-pyrazolo[3,4-d]pyrimidin-6-yl]amino]-N,1-dimethyl-cyclopentanecarboxamide] | 25 to 200 | – |
| CN1CCN(C(=O)[C@@H]2CC[C@@H](Nc3ncc4c(Br)nn(-c5ccc(N6CCOCC6)c(C#N)c5)c4n3)C2)CC1=O [Example 9, 5-(3-bromo-6-(((1R,3R)-3-(4-methyl-3-oxopiperazine-1-carbonyl)cyclopentyl)amino)-1H-pyrazolo[3,4-d]pyrimidin-1-yl)-2-morpholinobenzonitrile] | – | 200 to 500 |
| CNC(=O)C1(C)CC[C@@H](Nc2ncc3c(Br)nn(-c4cc(C#N)c5nccc(C)c5c4)c3n2)C1 (stereo partly drawn) [(3R)-3-[[3-bromo-1-(8-cyano-4-methyl-6-quinolyl)pyrazolo[3,4-d]pyrimidin-6-yl]amino]-N,1-dimethyl-cyclopentane-carboxamide] | < 25 | – |
| CNC(=O)[C@]1(C)CC[C@@H](Nc2ncc3c(Br)nn(-c4ccc(-c5nnc(C)s5)c(CCS(C)(=O)=O)c4)c3n2)C1 [(1R,3R)-3-[[3-bromo-1-[3-(2-methyl-sulfonylethyl)-4-(5-methyl-1,3,4-thiadiazol-2-yl)phenyl]pyrazolo[3,4-d]pyrimidin-6-yl]amino]-N,1-dimethyl-cyclopentanecarboxamide] | 25 to 200 | – |
| CNC(=O)[C@]1(C)CC[C@@H](Nc2ncc3c(Br)nn(-c4cc(C5(CN)CC5)c5ncccc5c4)c3n2)C1 [(1R,3R)-3-[[1-[8-[1-(aminomethyl)cyclo-propyl]-6-quinolyl]-3-bromo-pyrazolo [3,4-d]pyrimidin-6-yl]amino]-N,1-dimethyl-cyclopentanecarboxamide] | 25 to 200 | – |
| CNC(=O)[C@]1(C)CC[C@@H](Nc2ncc3c(Br)nn(-c4cc(Cl)cc([C@H](C)N)c4)c3n2)C1 [Example 64, (1R,3R)-3-((1-(3-((S)-1-aminoethyl)-5-chlorophenyl)-3-bromo-1H-pyrazolo[3,4-d]pyrimidin-6-yl)amino)-N,1-dimethylcyclopentane-1-carboxamide] | – | < 25 |
| CNC(=O)[C@]1(C)CC[C@@H](Nc2ncc3c(Br)nn(-c4ccc(-c5nnc(C)s5)c(CCO)c4)c3n2)C1 [(1R,3R)-3-[[3-bromo-1-[3-(2-hydroxyethyl)-4-(5-methyl-1,3,4-thiadiazol-2-yl)phenyl]pyrazolo[3,4-d]pyrimidin-6-yl]amino]-N,1-dimethyl-cyclopentanecarboxamide] | 25 to 200 | – |
| CNC(=O)[C@]1(C)CC[C@@H](Nc2ncc3c(Br)nn(-c4ccc(-c5nnc(C)s5)c(CCN5CCOCC5)c4)c3n2)C1 [(1R,3R)-3-[[3-bromo-1-[4-(5-methyl-1,3,4-thiadiazol-2-yl)-3-(2-morpholino-ethyl)phenyl]pyrazolo[3,4-d]pyrimidin-6-yl]amino]-N,1-dimethyl-cyclo-pentanecarboxamide] | 25 to 200 | – |
| N#Cc1cc(-n2nc(Br)c3cnc(N[C@@H]4CC[C@@H](C(=O)NC5CCN(CC(F)(F)F)C5)C4)nc32)cc2cccnc12 (mixture of isomers) | 25 to 200 | – |
| CC[C@@]1(C(=O)NC)CC[C@@H](Nc2ncc3c(I)nn(-c4cc(F)c5ncccc5c4)c3n2)C1 [(1R,3R)-1-ethyl-3-[[1-(8-fluoro-6-quinolyl)-3-iodo-pyrazolo[3,4-d]pyrimidin-6-yl]amino]-N-methyl-cyclopentanecarboxamide] | < 25 | – |
| CP(C)(=O)[C@@H]1CC[C@@H](Nc2ncc3c(Br)nn(-c4cc(CCN)c5nccnc5c4)c3n2)C1 [1-[8-(2-aminoethyl)quinoxalin-6-yl]-3-bromo-N-[(1R,3R)-3-dimethylphosphorylcyclopentyl] pyrazolo[3,4-d]pyrimidin-6-amine] | 25 to 200 | – |
| Cc1nnc(-c2ccc(-n3nc(Br)c4cnc(N[C@@H]5CC[C@@H](NC(=O)C6CC(C)(O)C6)C5)nc43)cc2)s1 (stereo partly drawn) [N-[(1R,3R)-3-[[3-bromo-1-[4-(5-methyl-1,3,4-thiadiazol-2-yl)phenyl]pyrazolo [3,4-d]pyrimidin-6-yl]amino]cyclopentyl]-3-hydroxy-3-methyl-cyclobutane-carboxamide] | 25 to 200 | – |
| CNC(=O)[C@]1(C)CC[C@@H](Nc2ncc3c(Br)nn(-c4cccc(NC(=O)c5cscn5)c4)c3n2)C1 [N-[3-[3-bromo-6-[[(1R,3R)-3-methyl-3-(methylcarbamoyl)cyclopentyl]amino]pyrazolo[3,4-d]pyrimidin-1-yl]phenyl] thiazole-4-carboxamide] | 25 to 200 | – |
| CNC(=O)[C@]1(C)CC[C@@H](Nc2ncc3c(Br)nn(-c4ccc(-c5ncco5)c(NC(=O)[C@H]5CCNC5)c4)c3n2)C1 [(3S)-N-[5-[3-bromo-6-[[(1R,3R)-3-methyl-3-(methylcarbamoyl)cyclopentyl]amino]pyrazolo[3,4-d]pyrimidin-1-yl]-2-oxazol-2-yl-phenyl]pyrrolidine-3-carboxamide] | < 25 | – |
| O=C(NCC(F)(F)CO)[C@@H]1CC[C@@H](Nc2ncc3c(Br)nn(-c4cc(F)c5ncccc5c4)c3n2)C1 | 25 to 200 | – |
| CNC(=O)C1(C)CC[C@@H](Nc2ncc3c(Br)nn(-c4cc(Cl)cc(CO)c4)c3n2)C1 (mixture of isomers) [Example 17, (3R)-3-((3-bromo-1-(3-chloro-5-(hydroxymethyl)phenyl)-1H-pyrazolo[3,4-d]pyrimidin-6-yl)amino)-N,1-dimethylcyclopentane-1-carboxamide] | – | 25 to 200 |
| N#Cc1cc(-n2nc(Br)c3cnc(N[C@@H]4CC[C@@H](C(=O)N5CCC5)C4)nc32)cc2cccnc12 [6-(6-(((1R,3R)-3-(azetidine-1-carbonyl)cyclopentyl)amino)-3-bromo-1H-pyrazolo [3,4-d]pyrimidin-1-yl)quinoline-8-carbonitrile] | 25 to 200 | – |
| CNC(=O)[C@]1(C)CC[C@@H](Nc2ncc3c(Br)nn(-c4ccc(-c5ncco5)c(C(C)(C)CN)c4)c3n2)C1 [(1R,3R)-3-[[1-[3-(2-amino-1,1-dimethyl-ethyl)-4-oxazol-2-yl-phenyl]-3-bromo-pyrazolo[3,4-d]pyrimidin-6-yl]amino]-N,1-dimethyl-cyclopentanecarboxamide] | 25 to 200 | – |
| COCCNC(=O)[C@@H]1CC[C@@H](Nc2ncc3c(Br)nn(-c4cc(C(F)(F)F)c5ncccc5c4)c3n2)C1 [(1R,3R)-3-((3-bromo-1-(8-(trifluoromethyl)quinolin-6-yl)-1H-pyrazolo[3,4-d]pyrimidin-6-yl)amino)-N-(2-methoxyethyl)cyclopentane-1-carboxamide] | 200 to 500 | – |
| CNC(=O)[C@]1(C)CC[C@@H](Nc2ncc3c(Br)nn(-c4cc(Cl)cc(C(=O)N5CCNCC5)c4)c3n2)C1 [(1R,3R)-3-[[3-bromo-1-[3-chloro-5-(piperazine-1-carbonyl)phenyl]pyrazolo [3,4-d]pyrimidin-6-yl]amino]-N,1-dimethyl-cyclopentanecarboxamide] | 25 to 200 | – |

From patent US11046699B2, “Pyrazolo-pyrimidin-amino-cycloalkyl compounds and their therapeutic uses” (RAPT THERAPEUTICS, INC., priority 2018, dated 2021)
